Laboratory results published in the supplement of paper PMC10307832.

Legend:
Test in all cases: relative viability (nuclei count vs DMSO), 5 days (fraction); higher = more cells survive
VX-702 + Pemetrexed = compound: NC(=O)c1ccc(N(C(N)=O)c2c(F)cccc2F)nc1-c1ccc(F)cc1F [VX-702] + Nc1nc2[nH]cc(CCc3ccc(C(=O)N[C@@H](CCC(=O)O)C(=O)O)cc3)c2c(=O)[nH]1 [Pemetrexed] (partner 0.2 µM)
How it was run: (§1)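 Relative viability equals treated-well nuclei counts divided by vehicle-well nuclei counts. Counts came from 4× images of lung cancer cell lines grown in 1536-well plates for 5 days after pin-tool dosing on the day after seeding. Dosing used one drug alone or a fixed anchor-drug dose plus five library-drug doses (not always all listed) in √10 steps, and values are medians of duplicate plates.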

Dabrafenib + Linsitinib = compound: CC(C)(C)c1nc(-c2cccc(NS(=O)(=O)c3c(F)cccc3F)c2F)c(-c2ccnc(N)n2)s1 [Dabrafenib] + C[C@]1(O)C[C@@H](c2nc(-c3ccc4ccc(-c5ccccc5)nc4c3)c3c(N)nccn32)C1 [Linsitinib] (partner 1 µM)
How it was run: as §1

VX-702 + Crizotinib = compound: NC(=O)c1ccc(N(C(N)=O)c2c(F)cccc2F)nc1-c1ccc(F)cc1F [VX-702] + C[C@@H](Oc1cc(-c2cnn(C3CCNCC3)c2)cnc1N)c1c(Cl)ccc(F)c1Cl [Crizotinib] (partner 1 µM)
How it was run: as §1

VX-702 + Olaparib = compound: NC(=O)c1ccc(N(C(N)=O)c2c(F)cccc2F)nc1-c1ccc(F)cc1F [VX-702] + O=C(c1cc(Cc2n[nH]c(=O)c3ccccc23)ccc1F)N1CCN(C(=O)C2CC2)CC1 [Olaparib] (partner 8 µM)
How it was run: as §1

| Cell Line | relative viability (VX-702 + Pemetrexed; first compound 0.02 µM) | relative viability (VX-702 + Pemetrexed; first compound 0.2 µM) | relative viability (VX-702 + Pemetrexed; first compound 0.6325 µM) | relative viability (VX-702 + Pemetrexed; first compound 2 µM) | relative viability (Dabrafenib + Linsitinib; first compound 0.003 µM) | relative viability (Dabrafenib + Linsitinib; first compound 0.009487 µM) | relative viability (Dabrafenib + Linsitinib; first compound 0.03 µM) | relative viability (Dabrafenib + Linsitinib; first compound 0.09487 µM) | relative viability (Dabrafenib + Linsitinib; first compound 0.3 µM) | relative viability (VX-702 + Crizotinib; first compound 0.02 µM) | relative viability (VX-702 + Crizotinib; first compound 0.2 µM) | relative viability (VX-702 + Crizotinib; first compound 0.6325 µM) | relative viability (VX-702 + Crizotinib; first compound 2 µM) | relative viability (VX-702 + Olaparib; first compound 0.02 µM) | relative viability (VX-702 + Olaparib; first compound 0.2 µM) | relative viability (VX-702 + Olaparib; first compound 0.6325 µM) | relative viability (VX-702 + Olaparib; first compound 2 µM) |
| --- | --- | --- | --- | --- | --- | --- | --- | --- | --- | --- | --- | --- | --- | --- | --- | --- | --- |
| H3255 | 0.565 | 0.612 | 0.551 | 0.599 | 0.944 | 1.06 | 1.01 | 0.832 | 1.03 | 0.774 | 1.09 | 0.855 | 0.86 | 0.578 | 0.53 | 0.558 | 0.594 |
| NCI-H838 | 0.234 | 0.24 | 0.254 | 0.236 | 0.994 | 1.04 | 0.95 | 0.97 | 1.08 | 0.779 | 0.755 | 0.807 | 0.976 | 0.772 | 0.715 | 0.827 | 0.926 |
| NCI-H1993 | 0.646 | 0.529 | 0.523 | 0.563 | 0.633 | 0.772 | 0.658 | 0.835 | 0.721 | 0.882 | 0.717 | 0.852 | 0.792 | 0.5 | 1.06 | 1.06 | 1.05 |
| SK-MES-1 | 0.936 | 0.89 | 0.891 | 0.979 | 1.07 | 1.04 | 1.06 | 1.04 | 1.12 | 0.989 | 0.94 | 0.986 | 1.09 | 0.679 | 0.681 | 0.622 | 0.696 |
| NCI-H661 | 0.766 | 0.877 | 0.932 | 0.971 | 0.501 | 0.594 | 0.375 | 0.521 | 0.52 | 1.08 | 0.977 | 0.939 | 1.11 | 0.752 | 0.73 | 0.756 | 0.798 |
| NCI-H1650 | 0.325 | 0.34 | 0.384 | 0.403 | – | – | – | – | – | 1.19 | 1.05 | 1 | 1.24 | 0.78 | 0.813 | 0.806 | 1.16 |
| ABC-1 | – | – | – | – | – | 0.81 | 0.841 | 0.892 | 0.861 | 1.34 | – | 1.08 | 1.42 | 0.443 | 0.894 | 1.03 | 0.746 |
| LU99A | 0.173 | 0.164 | 0.184 | 0.16 | 0.542 | 0.532 | 0.484 | 0.476 | 0.476 | 0.61 | 0.467 | 0.475 | 0.437 | 0.265 | 0.233 | 0.255 | 0.228 |
| ChaGo-K-1 | 0.249 | 0.257 | 0.269 | 0.26 | – | – | – | – | – | 1.09 | 1.1 | 1.21 | 1.23 | 0.458 | 0.414 | 0.433 | 0.352 |
| NCI-H2170 | 0.275 | 0.264 | 0.309 | 0.278 | – | – | – | – | – | 1.28 | 1.09 | 1.24 | 1.4 | 0.611 | 0.546 | 0.631 | 0.676 |
| NCI-H2347 | 0.425 | 0.43 | 0.438 | 0.415 | 0.675 | 0.965 | 1.08 | 1.03 | 0.942 | 0.733 | 0.763 | 0.858 | 0.731 | 0.498 | 0.467 | 0.638 | 0.456 |
